Reference: PMC5325331, “A steroid like phytochemical Antcin M is an anti-aging reagent that eliminates hyperglycemia-accelerated premature senescence in dermal fibroblasts by direct activation of Nrf2 and SIRT-1” (Oncotarget, 2016)

Columns and labels:
[1] = Cell-free DPPH free-radical scavenging assay
Description: Therefore, next to determine whether ANM acts directly as a free-radical scavenger, we performed a cell-free DPPH free-radical scavenging assay.
Figure 5 Antcin M activates Nrf2-dependent anti-oxidant defense in HNDFs A. To determine the free-radical scavenging effect of ANM, cell-free DPPH assay was performed. […] Results expressed as mean ± S.E.M of three indipendent expriments.

HNDFs = assay: Cell proliferation, trypan blue exclusion assay in HG-induced HNDFs; format: cell-based, human; details: with HG (30 mM) for 72 h (Figure 2D)
Description: Cell proliferation was evaluated using trypan blue exclusion assay as described previously with minor modification. Cells were plated into 6-well plates at a density of 5 × 10^4 cells/well. After incubation overnight, cells were treated with test samples in the presence or absence of HG for 24-72 h. Cells exposed to 0.2% Trypan blue were then counted in a hemocytometer, and cells stained with Trypan blue were excluded. Percentage of viable cells was calculated based on the ratio of viable cells to total cell population in each well. The proliferation rate was calculated based on the number of viable cells in HG or sample-treated groups versus the NG-treated group.

HUVECs [2] = assay: Cell viability of HUVECs (MTT assay); format: cell-based, human; details: ANM 10 μM or RES 5 μM for 48 h
Description: Human normal dermal fibroblasts ([…]) and human umbilical vein endothelial cells (HUVECs) were obtained from the Bioresource Collection and Research Center (BCRC), Hsinchu, Taiwan. […] Likewise, HUVECs were grown in M-199 medium supplemented with ECGS, heparin, 10% FBS and 100 U/mL penicillin and streptomycin at 37°C in a fully humidified atmosphere of 5% CO2. High-glucose treatment was performed by treating cells with 15 or 30 mM D-glucose (HG) for 24-72 h. […] Cell viability was assessed by MTT colorimetric assay. […] After treatment with HG (15 and 30 mM) in the presence or absence of samples for 24-72 h, culture media was withdrawn and incubated with MTT (1 mg/mL) in fresh medium for 2 h. The MTT formazan crystals were dissolved in 400 μL of DMSO and the samples were measured at 570 nm […] using an ELISA microplate reader (Bio-Tek Instruments, Winooski, VT). The percentage of cell viability (%) was calculated as (A570 of treated cells/A570 of untreated cells) × 100.

HUVECs [3] = assay: Intracellular ROS by DCF fluorescence assay in HUVECs; format: cell-based, human; details: ANM 10 μM with HG (30 mM) for 48 h; HG alone 14.3-fold
Description: Cell viability was dermined by MTT assay. Percentage of viable cells were normalized with control cells (NG). B. Cellular senescence was determined by SA-β-gal activity assay as descrided in Materials and Methods. C., D. Total cell lysate was extracted and senescence-associated marker proteins including p16INK4A, p21CIP1, total and acetylated p53 and FoxO1 were measured by western blot analysis. E. Protein expression levels of SIRT-1 and phos-SIRT-1 were monitored by immunoblotting. […] The intracellular ROS level was quantified by utilizing DCFH-DA assay. G. Western blot analysis was performed to determine the protein expression levels of HO-1 and NQO-1. […] Cell lysates were mixed with luciferase reagents and quantified using an illuminometer. Relative ARE promoter activity was calculated by dividing the relative luciferace unit (RLU) of treated cells by RLU of untraeated cells (NG). Results expressed as mean ± SEM of three indipendent expriments. Statistical significance at ^ФP < 0.05 compared to NG vs. HG and *P < 0.05 compared to HG vs. samples.

[4] = test system: C. elegans wild type Bristol N2; assay: Life span assay in C. elegans; format: in vivo, Caenorhabditis elegans
Description: The wild type Bristol N2 strain was used in this study. C. elegans and Escherichia coli OP50 strain were obtained from the Caenorhabditis Genetic Center, University of Minnesota (Minneapolis-St. Paul, MN). Worms were maintained at 20°C on nematode growth medium (NGM). Hatched worms (L1-stage larvae) were transferred to fresh agar plates and cultured with E. coli OP50 as a food source until they reached the L4 larvae stage. Synchronization of worm cultures was achieved by hypochlorite treatment of gravid hermaphrodites. […] Control worms were treated with 0.1% DMSO. All worms were kept 20°C to develop adulthood. Surviving and dead animals were counted daily (starting from the first day of adulthood) until all worms had died. […] Worms suffering from internal hatch (a defect in egg-laying) and those that crawled off the NGM plate were not included in the life-span assay. During the reproductive period, adult worms were transferred to fresh NGM plates every and then every other day thereafter. Life span assay result was obtained from three independent assays.

HUVECs [5] = assay: SA-β-gal senescence assay in HG-treated HUVECs; format: cell-based, human; details: ANM 10 μM with HG (30 mM) for 48 h; HG alone 6.38-fold
Description: Senescence-associated β-galactosidase (SA-β-gal) activity was determined in formaldehyde-fixed histochemical staining kit according to the manufacturer's instructions (Cell Signaling Technology, Danvers, […]). Briefly, cells were grown in 6-well plates at a density of 5 × 10^4 cells/well, and incubated with HG or test samples for 48 h (HUVECs) or 72 h (HNDFs). After incubation, cells were stained with SA-β-gal staining solution at pH 6.0 overnight and then the development of blue staining was observed and photographed under a bright-field microscope (Motic Electric Group, Xiamen, P.R. China).

[6] = test system: Nrf2 transcriptional activity (ARE promoter); assay: ARE luciferase reporter assay in HNDFs; format: cell-based, human; details: 6 h
Description: ARE promoter activity was measured using a dual-luciferase reporter assay system (Promega, Madison, WI). […] Cells were then transfected with ARE plasmid (Qiagen, Hilden, Germany) using Lipofectamine 2000 (Invitrogen) and incubated for 36 h. […] The cell lysate was prepared and incubated with luciferase agents and the relative luminescence intensity was quantified using a spectrophotometer (Hidex Oy, Turku, Finland).

[7] = test system: p16INK4A, p21CIP1 and SMP30; assay: Western blot of senescence-associated marker proteins in HG-induced HNDFs; format: cell-based, human; details: 10 μM with HG (30 mM) for 72 h, immunoblotting
Description: Cells were lysed by either RIPA lysis buffer or nuclear and cytoplasmic extraction reagents (Thermo Fisher Scientific). Protein concentrations were determined by Bio-Rad protein assay reagent (Bio-Rad Laboratories, Hercules, CA). Equal amounts of protein samples (60 μg) were separated by 7-12% SDS-PAGE and the separated proteins were transferred onto polyvinylidene […] (PVDC) membrane overnight. The transferred protein membranes were blocked with 5% non-fat dried milk for 30 min, followed by incubation with specific primary antibodies overnight, and either horseradish peroxidase-conjugated goat anti-rabbit or anti-mouse antibodies for 2 h. The blots were detected using VL Chemi-Smart 3000 (Viogene Biotek, Sunnyvale, CA) with the enhanced chemiluminescence (ECL) western blotting reagent (Millipore, Billerica, MA).

C=C(CCC(C)C1CCC2C3=C(C(=O)C(O)C21C)C1(C)CCC(O)C(C)C1CC3)C(C)C(=O)O (centres unmarked) [ANM, antcin M]
free-radical scavenging in the cell-free system [1]: failed to scavenge free radicals | cell proliferation compared to the HG treatment group (HNDFs): two-fold increase | cell viability of HUVECs, treatment alone (HUVECs [2]): did not affect cell viability | intracellular ROS levels (HUVECs [3]): 6.1 fold | life span of C. elegans under normal condition ([4]; ANM 10 μM or RES 438 μM alone, compared to the control): significantly (P < 0.026) prolonged the life span | life span of C. elegans under high glucose ([4]; high glucose (50 mM) with ANM (100 μM as printed elsewhere in the source), vs high glucose alone): significant (P < 0.0001) increase of life span | SA-β-gal staining (endothelial senescence) (HUVECs [5]): 1.36 fold | ARE luciferase activity ([6]; ANM 10 μM or NAC 100 μM alone, control 1-fold): 5.8 fold | ARE luciferase activity ([6]; co-treated with HG (30 mM), ANM 10 μM or NAC 100 μM, HG alone 2.5-fold): 8.5 fold | HG-induced upregulation of p16INK4A and p21CIP1 proteins [7]: significantly downregulated | SMP30 protein expression [7]: rescued HG-induced SMP30 depletion
